48 compounds from US20130310379A1, “MODULATORS OF METHYL MODIFYING ENZYMES, COMPOSITIONS AND USES THEREOF” (CONSTELLATION PHARMACEUTICALS, priority 2010, published 2013) can be followed below.

For orientation: IC50 means the concentration at which inhibition is half-maximal.

Chain of EZH2 (Q15910 whole entry): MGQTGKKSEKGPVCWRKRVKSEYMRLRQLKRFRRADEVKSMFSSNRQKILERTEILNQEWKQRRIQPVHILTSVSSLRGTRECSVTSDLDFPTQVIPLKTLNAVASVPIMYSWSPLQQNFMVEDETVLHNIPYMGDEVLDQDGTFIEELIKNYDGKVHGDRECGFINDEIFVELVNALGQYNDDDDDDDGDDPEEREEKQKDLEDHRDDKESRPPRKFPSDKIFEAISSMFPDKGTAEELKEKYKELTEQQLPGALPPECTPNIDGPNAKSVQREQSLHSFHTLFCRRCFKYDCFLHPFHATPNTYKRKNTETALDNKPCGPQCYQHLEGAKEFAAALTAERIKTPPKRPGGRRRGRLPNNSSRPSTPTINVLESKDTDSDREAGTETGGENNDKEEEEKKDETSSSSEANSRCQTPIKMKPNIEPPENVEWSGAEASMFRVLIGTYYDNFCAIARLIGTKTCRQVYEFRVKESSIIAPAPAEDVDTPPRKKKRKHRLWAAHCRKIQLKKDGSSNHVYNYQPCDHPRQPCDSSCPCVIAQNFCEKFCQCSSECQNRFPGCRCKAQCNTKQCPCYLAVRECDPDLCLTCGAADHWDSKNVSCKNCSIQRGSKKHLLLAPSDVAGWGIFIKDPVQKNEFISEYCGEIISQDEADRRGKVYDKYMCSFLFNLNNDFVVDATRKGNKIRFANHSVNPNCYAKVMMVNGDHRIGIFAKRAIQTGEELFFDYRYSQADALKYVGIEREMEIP
Chain of EZH2 (O75530 whole entry partner): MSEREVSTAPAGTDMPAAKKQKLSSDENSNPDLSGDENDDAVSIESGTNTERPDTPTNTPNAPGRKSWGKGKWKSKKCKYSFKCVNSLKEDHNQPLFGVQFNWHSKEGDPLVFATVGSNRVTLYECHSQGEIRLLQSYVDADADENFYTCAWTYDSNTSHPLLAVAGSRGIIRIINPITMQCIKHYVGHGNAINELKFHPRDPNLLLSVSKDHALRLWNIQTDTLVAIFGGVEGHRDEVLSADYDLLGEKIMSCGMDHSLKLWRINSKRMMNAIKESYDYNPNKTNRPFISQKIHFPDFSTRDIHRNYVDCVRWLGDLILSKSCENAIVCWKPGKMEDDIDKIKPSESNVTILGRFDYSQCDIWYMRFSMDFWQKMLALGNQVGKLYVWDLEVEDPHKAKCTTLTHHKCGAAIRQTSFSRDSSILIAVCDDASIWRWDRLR
Chain of EZH2 (Q15022 whole entry partner): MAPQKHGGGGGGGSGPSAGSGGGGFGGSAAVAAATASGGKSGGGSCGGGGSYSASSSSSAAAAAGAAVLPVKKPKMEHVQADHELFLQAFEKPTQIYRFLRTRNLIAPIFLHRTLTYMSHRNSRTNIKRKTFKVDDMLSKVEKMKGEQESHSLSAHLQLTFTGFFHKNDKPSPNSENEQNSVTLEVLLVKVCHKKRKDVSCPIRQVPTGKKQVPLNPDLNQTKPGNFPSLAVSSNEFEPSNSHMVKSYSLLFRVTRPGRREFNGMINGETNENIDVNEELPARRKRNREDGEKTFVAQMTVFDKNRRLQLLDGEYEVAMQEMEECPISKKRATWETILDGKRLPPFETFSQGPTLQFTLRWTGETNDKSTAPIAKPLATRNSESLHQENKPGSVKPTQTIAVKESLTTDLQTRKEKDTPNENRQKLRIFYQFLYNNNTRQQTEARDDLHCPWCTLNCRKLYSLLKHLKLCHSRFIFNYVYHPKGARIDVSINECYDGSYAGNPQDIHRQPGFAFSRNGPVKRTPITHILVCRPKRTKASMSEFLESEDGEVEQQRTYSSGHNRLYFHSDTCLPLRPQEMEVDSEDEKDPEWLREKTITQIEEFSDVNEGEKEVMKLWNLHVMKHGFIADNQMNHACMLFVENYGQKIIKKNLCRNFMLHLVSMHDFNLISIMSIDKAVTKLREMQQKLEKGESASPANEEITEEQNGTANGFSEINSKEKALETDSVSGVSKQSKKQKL

The experiment has as its target EZH2 (Homo sapiens, UniProt Q15910). Nature of the experiment: EZH2 assay: rPRC2 with biotinylated oligonucleosome substrates and 3H SAM, FlashPlate scintillation counting, IC50. The class given is biochemical. To be noted: rPRC2, biotinylated oligonucleosome substrates, 3H SAM; read-out: EZH2 IC50. How it is done:
Assays were carried out by mixing rPRC2 together with biotinylated oligonucleosome substrates in the presence of the radio-labeled enzyme co-factor, S-adenosyl-L-methionine (^3H SAM) (Perkin Elmer) and monitoring the enzymatically mediated transfer of tritiated methyl groups from ^3H SAM to histone lysine residues. The amount of resulting tritated methylhistone product was measured by first capturing the biotinylated oligonuclesomes in streptavidin (SAV) coated FlashPlates (Perkin Elmer), followed by a wash step to remove un-reacted ^3H SAM, and then counting on a TopCount NXT 384 well plate scintillation counter (Perkin Elmer). The final assay conditions for EZH2 were as follows: 50 mM Tris Buffer pH 8.5, 1 mM DTT, 69 uM Brij-35 detergent, 5.0 mM MgCl2, 0.1 mg/mL BSA, 0.2 uM ^3H SAM, 0.2 uM biotinylated oligonucleosomes, 3.6 uM H3K27me3 peptide and 2 nM EZH2.
Compound IC50 measurements were obtained as follows: Compounds were first dissolved in 100% DMSO as 10 mM stock solutions. […] A 12.5 uL volume of the HMT enzyme, H3K27me3 peptide and oligonucleosome substrate in assay buffer was added to each well of the assay plate using a Multidrop Combi (ThermoFisher). Compounds were pre-incubated with the enzyme for 20 min, followed by initiation of the methyltransferase reaction by addition of 12.5 uL of 3H SAM in assay buffer (final volume=25 uL). The final concentrations of compounds ranged from a top default concentration of 80 uM down to 0.16 uM in ten 2-fold dilution steps. Reactions were carried out for 60 minutes and quenched with 20 uL per well of 1.96 mM SAH, 50 mM Tris PH 8.5, 200 mM EDTA. Stopped reactions were transferred to SAV coated Flashplates (Perkin Elmer), incubated for 120 min, washed with a plate washer, and then read on the TopCount NXT (1.0 min/well) to measure the amount of methylhistone product formed during the reaction. The amount of methylhistone product was compared with the amount of product formed in the 0% and 100% inhibition control wells allowing the calculation of % Inhibition in the presence of the individual compounds at various concentrations. IC50's were computed using a 4 parameter fit non-linear curve fitting software package (XLFIT, part of the database package, ActivityBase (IDBS)) where the four parameters were IC50, Hill slope, pre-transitional baseline (0% INH), and post-transitional baseline (100% INH); with the latter two parameters being fixed to zero and 100%, respectively, by default.
With `CC1(C)CC(NC(=O)c2ccc(Oc3ccccc3)c(Cl)c2)CC(C)(C)N1` [Compound I-49, 3-chloro-N-(2,2,6,6-tetramethylpiperidin-4-yl)-4-phenoxybenzamide], the IC50 fell in the range of 20 to 80 µM.

As for `Cc1cc(C(=O)NC2CC(C)(C)NC(C)(C)C2)ccc1Oc1cccc(C2CC2)c1C#N` [Compound I-263], the IC50 is under 5 µM.

Regarding `Cc1cccc(C#N)c1Oc1ccc(C(=O)NC2CC(C)(C)NC(C)(C)C2)cc1` [Compound I-176], the half-maximal inhibitory concentration (IC50) lay within 20 to 80 µM.

`CN(C(=O)c1ccc(COc2cccc(Br)c2)cc1)C1CCNCC1` [Compound I-126]: the half-inhibitory concentration (IC50) is over 80 µM.

As for `O=C(NCc1ccccc1)c1ccc(Oc2ccccc2)cc1` [Compound I-141], the IC50 is over 80 µM.

For `COc1cccc(Oc2ccc(C(=O)NC3CC(C)(C)NC(C)(C)C3)cc2)c1` [Compound I-71], the IC50 was over 80 µM.

Regarding `CC1(C)CC(NC(=O)c2ccc(Oc3cccc(-c4ccc(C#N)cc4)c3C#N)c(Cl)c2)CC(C)(C)N1` [Compound I-506], the IC50 is under 5 µM.

In the case of `CC1(C)CC(NC(=O)c2ccc(Oc3ccccc3C#N)c(Cc3ccccc3)c2)CC(C)(C)N1` [Compound I-201], the half-inhibitory concentration (IC50) is under 5 µM.

For `CC1(C)CC(NC(=O)c2ccc(Oc3cccc4c(=O)[nH]ccc34)cc2)CC(C)(C)N1` [Compound I-317], the IC50 was over 80 µM.

As to `CC1(C)CC(NC(=O)N2CCC(Oc3ccccc3)C2)CC(C)(C)N1` (stereo not drawn) [Compound I-466], the half-maximal inhibitory concentration (IC50) is over 80 µM.

As for `CC1(C)CC(NC(=O)c2ccc(OC(C#N)c3ccccc3)c(Cl)c2)CC(C)(C)N1` (stereo not drawn) [Compound I-421], the 50% inhibitory concentration (IC50) is over 80 µM.

Turning to `Cc1noc(C)c1-c1cc(C(=O)NC2CC(C)(C)NC(C)(C)C2)ccc1Oc1ccccc1C#N` [Compound I-214], the IC50 was 20 to 80 µM.

Take `CC1(C)CC(NC(=O)c2ccc(COc3cccc(-c4cn[nH]c4)c3)cc2)CC(C)(C)N1` [Compound I-12]: the IC50 is 5 to 20 µM.

As to `CC1(C)CC(NC(=O)c2ccc(Oc3ccccc3OCc3ccncc3)cc2)CC(C)(C)N1` [Compound I-209], the IC50 was 5 to 20 µM.

In the case of `CC1(C)CC(NC(=O)c2ccc(N3CC(c4ccccc4)CC3=O)c(Cl)c2)CC(C)(C)N1` (stereo not drawn) [Compound I-396], the 50% inhibitory concentration (IC50) is over 80 µM.

For `Cc1cc(C(=O)NC2CC(C)(C)NC(C)(C)C2)cc(C)c1Oc1ccccc1C#N` [Compound I-335], the IC50 fell in the range of 20 to 80 µM.

As to `CC1(C)CC(NC(=O)c2ccc3ccccc3c2)CC(C)(C)N1` [Compound I-137], the concentration for half-maximal inhibition (IC50) was over 80 µM.

`CC1(C)CC(NC(=O)c2ccc(COc3ccc(C#N)cc3)cc2)CC(C)(C)N1` [Compound I-67]: the half-inhibitory concentration (IC50) was in the range of 20 to 80 µM.

With `CC1(C)CC(NC(=O)c2ccc(Oc3ccccc3OCc3ccccn3)cc2)CC(C)(C)N1` [Compound I-231], the half-inhibitory concentration (IC50) is 5 to 20 µM.

Consider `COc1cc(C(=O)NC2CC(C)(C)NC(C)(C)C2)cc2c1OCCO2` [Compound I-471], for which the IC50 is over 80 µM.

As for `N#Cc1ccccc1Oc1ccc(C(=O)N[C@H]2C[C@H]3CC[C@@H](C2)N3)cc1Cl` [Compound I-408], the IC50 was over 80 µM.

`CC(C)NC(=O)c1ccc(Oc2ccccc2)cc1` [Compound I-96]: the concentration for half-maximal inhibition (IC50) was over 80 µM.

Turning to `CCN1C(C)(C)CC(NC(=O)c2ccc(Oc3ccccc3C#N)c(Cl)c2)CC1(C)C` [Compound I-276], the 50% inhibitory concentration (IC50) lay within 5 to 20 µM.

As for `Cc1cncc(-c2cccc(Oc3ccc(C(=O)NC4CC(C)(C)NC(C)(C)C4)cc3Cl)c2C#N)c1` [Compound I-360], the IC50 was under 5 µM.

As for `CC1(C)CC(NC(=O)c2ccc(Oc3ccccc3)c(OCc3ccccc3)c2)CC(C)(C)N1` [Compound I-269], the half-inhibitory concentration (IC50) is 20 to 80 µM.

With `CCOC(=O)c1cccc(Oc2ccc(C(=O)NC3CC(C)(C)NC(C)(C)C3)cc2)c1` [Compound I-34], the half-inhibitory concentration (IC50) is 20 to 80 µM.

`CC1(C)CC(NC(=O)c2ccc(OC[C@@H]3CCCN3)c(Cl)c2)CC(C)(C)N1` [Compound I-410]: the IC50 is over 80 µM.

For the compound `CC1(C)CC(NC(=O)c2ccc(Oc3ccc(F)cc3C#N)cc2)CC(C)(C)N1` [Compound I-157], the IC50 lay in the range of 20 to 80 µM.

With `CC1(C)CC(NC(=O)c2ccc(Oc3ccccc3OCc3ccccc3)c(Cl)c2)CC(C)(C)N1` [Compound I-194], the 50% inhibitory concentration (IC50) is under 5 µM.

As for `CC1(C)CC(NC(=O)c2ccc(Oc3ccccc3C(=O)N3CCCC3)c(Cl)c2)CC(C)(C)N1` [Compound I-233], the IC50 is over 80 µM.

For `CNc1cccc(OCc2ccc(C(=O)NC3CC(C)(C)NC(C)(C)C3)cc2)n1` [Compound I-121, 4-(((6-(methylamino)pyridin-2-yl)oxy)methyl)-N-(2,2,6,6-tetramethylpiperidin-4-yl)benzamide], the half-maximal inhibitory concentration (IC50) is over 80 µM.

Turning to `CC1(C)CC(NC(=O)c2ccc(Oc3ccccc3C#N)c(C3CCCC3)c2)CC(C)(C)N1` [Compound I-238], the concentration for half-maximal inhibition (IC50) was 5 to 20 µM.

`CC1(C)CC(NC(=O)c2ccc(N3CCOC(c4ccccc4)C3)c(Cl)c2)CC(C)(C)N1` (stereo not drawn) [Compound I-416]: the IC50 is over 80 µM.

Take `CC1(C)CC(NC(=O)c2ccc(COc3cccc4cccnc34)cc2)CC(C)(C)N1` [Compound I-189]: the IC50 is 20 to 80 µM.

Take `CC1(C)CC(NC(=O)c2ccc(Oc3ccccc3C#N)c(Cl)c2)CC(C)(C)C1` [Compound I-433]: the half-maximal inhibitory concentration (IC50) was over 80 µM.

For `CC1(C)CC(NC(=O)N2CCC(Oc3ccccc3C#N)CC2)CC(C)(C)N1` [Compound I-442], the concentration for half-maximal inhibition (IC50) is over 80 µM.

Take `CC1(C)CC(NC(=O)c2ccc(COc3cccc(-c4ccc(NCCN5CCOCC5)nc4)c3)cc2)CC(C)(C)N1` [Compound I-129]: the 50% inhibitory concentration (IC50) was over 80 µM.

On to `CC1(C)CC(NC(=O)c2ccc(COc3cccc(-c4ccc(F)nc4)c3)cc2)CC(C)(C)N1` [Compound I-19], for which the IC50 was 5 to 20 µM.

With `CC1(C)CC(NC(=O)c2ccc(Oc3cccc4cnc(Cl)cc34)cc2)CC(C)(C)N1` [Compound I-315], the IC50 is under 5 µM.

Take `COc1cncc(-c2cccc(OCc3ccc(C(=O)NC4CC(C)(C)NC(C)(C)C4)cc3)c2)c1` [Compound I-37]: the IC50 lay in the range of 20 to 80 µM.

As to `N#Cc1ccccc1Oc1ccc(C(=O)N[C@@H]2C[C@H]3CC[C@@H](C2)N3)cc1Cl` [Compound I-380], the half-maximal inhibitory concentration (IC50) fell in the range of 20 to 80 µM.

For `CC1(C)CC(NC(=O)c2ccc(Oc3cccc(CC#N)c3)c(Cl)c2)CC(C)(C)N1` [Compound I-451], the concentration for half-maximal inhibition (IC50) is under 5 µM.

`CC1(C)CC(NC(=O)c2ccc(Nc3ccccc3)nc2)CC(C)(C)N1` [Compound I-104, 6-(Phenylamino)-N-(2,2,6,6-tetramethylpiperidin-4-yl)nicotinamide]: the IC50 was over 80 µM.

`Cn1cc(-c2cccc(Oc3ccc(C(=O)NC4CC(C)(C)NC(C)(C)C4)cc3Cl)c2C#N)ccc1=O` [Compound I-476]: the IC50 was under 5 µM.

As for `CC1(C)CC(NC(=O)c2ccc(Cc3ccccc3)cc2)CC(C)(C)N1` [Compound I-127, 4-Benzyl-N-(2,2,6,6-tetramethylpiperidin-4-yl)benzamide], the half-inhibitory concentration (IC50) was over 80 µM.

With `CC1(C)CC(NC(=O)c2ccc(Oc3cccc4ncccc34)cc2)CC(C)(C)N1` [Compound I-222], the IC50 is over 80 µM.

`CC1(C)CC(NC(=O)c2ccc(Oc3cccc(-c4ccc(C(N)=O)nc4)c3C#N)c(Cl)c2)CC(C)(C)N1` [Compound I-527]: the IC50 was under 5 µM.

On to `CC1(C)CC(NC(=O)N2CCN(Cc3ccccc3C#N)CC2)CC(C)(C)N1` [Compound I-438], for which the concentration for half-maximal inhibition (IC50) was over 80 µM.
